Assay results published in US20230181475A1, “COMPOSITION COMPRISING METHYLFOLATE” (ALFASIGMA S.P.A., priority 2020, published 2023).

What was measured:
[1] = system: C57Black/6J mice subjected to CUS; experiment: Forced swimming test (FST) in mice subjected to Chronic Unpredictable Stress (CUS); format: in vivo; settings: MTHF 3 mg/kg, LAC 30 mg/kg; for effect on immobility time in FST / effects of chronic stress (in words): 3 days of treatment; for Total Immobility Time (sec) + SD: i.p. 3 days of treatment, last 4 minutes of 6 min test, n=8
Procedure: The animal study was performed in a validate experimental model subject to Chronic Unpredictable Stress (CUS), as described in J H Cryan et al. in J. Neubiorev. 2005, 03, 009, for a period of 4 weeks to induce the depressive phenotype CUS. The CUS allows the depressive phenotype responsive to standard antidepressant treatments to be reproduced in vivo in mammals. The animals were divided in five groups and the group which received the combination of MTHF with LAC was compared with the groups which received MTHF and LAC separately. All the groups were compared with the group which received saline solution and the group which not submitted to CUS.
The mice were subjected to CUS for 4 weeks, and the drug treatment started at the 3rd week of CUS and maintained until the end of the 4-week treatment.
To assess the antidepressant effects of the selected product LAC and MTHF the animals were submitted to the Forced swimming test (“FST”) as described in J H Cryan et al. in J. Neubiorev. 2005, 03, 009 and measured the Total Immobility Time expressed in the […] of animals.
Forty, 7-week-old male C57Black/6J, mice were subjected to CUS (“Chronic Unpredictable Mild Stress”), a validate model that allow the depressive phenotype as described in J H Cryan et al. in J. Neubiorev. 2005, 03, 009.
The mice were subjected to CUS for 4 weeks, during which different types of stress were applied to the animals twice-a-day in a random and unpredictable manner: one session during the day lasting 1-3 hours, and one session during the night (lasting 12 hours), with at least 6 hours of interval between the two sessions. […]
To assess the antidepressant behavioural effects of the selected product LAC and MEF the animals were submitted to the Forced swimming test (“FST”) as described in J H Cryan et al. in J. Neubiorev. 2005, 03, 009 and the Total Immobility Time measured in the 5 group of animals.
During the test the mice were placed individually for 6 minutes in transparent plexiglass cylinders (25 cm high and 22 cm in diameter) filled with warm water (28° C.), in sufficient quantity to prevent the mouse from touching the bottom of the cylinder with hind legs. The animal was videotaped, and then the immobility time (expressed in seconds) was measured during the last 4 minutes of the test.

[2] = system: BDNF protein; experiment: Western blot of BDNF protein in frontal cortex of CUS mice; format: in vivo; settings: 14 days i.p. treatment, MTHF 3 mg/kg, LAC 30 mg/kg
Procedure: Mice after 4 weeks of CUS and 2 week of pharmacological treatments, as described before, at the end of Week 5 the animals were sacrificed and the level of BDNF protein were measured in Frontal Cortex by western blot.
Drug treatment started at the 3rd week of CUS and it was maintained for 2 weeks, the study ending at Week 5 for the start of the experiment. Behavioural tests were performed 3 days after the beginning of treatments, while post-mortem protein studies in the mouse brain were performed after 14 days of treatment, at the end of Week 5.
Mice were treated as described in Example 19. After 4 weeks of CUS and 2 week of pharmacological treatments (as described in Example 19), at the end of Week 5 the animals were sacrificed and the level of BDNF protein were measured in Hippocampus and Frontal Cortex by western blot. Table 28 reports the protein levels of BDNF, a neuronal trophic factor related to chronic stress and depression, in the Frontal Cortex of mice.
The antibody recognizes the mature form of the 17 KDa BDNF.

Row | Molecule | effect on immobility time in FST / effects of chronic stress (in words) [1] | Total Immobility Time (sec) + SD [1] | Western blot BDNF in frontal cortex, Optical Density bands + SD [2]
1 | CC(=O)O[C@H](CC(=O)[O-])C[N+](C)(C)C [LAC, Acetyl L-carnitine] | not antagonised | 245.75 + 30.34 sec | 113.29 + 28.95
2 | calcium L-5-methyl-(6S)-tetrahydrofolate [MTHF] | not antagonised | 230 + 14.20 sec | 138.46 + 18.26
